# Measurements as given in patent EP2958945B1, “COMBINATION THERAPY INVOLVING ANTIBODIES AGAINST CLAUDIN 18.2 FOR TREATMENT OF CANCER” (Astellas Pharma Inc., priority 2013, dated 2014).
# Columns and labels:
# Assay type in all cases: cell-based, human
# [1] = system: DANG; experiment: Inhibition of proliferation (XTT), DANG; conditions: exposed for 4 days
# Procedure: (§1) To analyze dose-response curves of each chemotherapeutic agent, a proliferation assay was performed. Table 6: Pancreas cancer cell lines to analyze efficacy of gemcitabine or oxaliplatin
# (§2) Cells were seeded in 96well plates and after 4-6 hours gemcitabine or oxaliplatin was added in following concentrations: 1000, 500, 250, 100 and 20 ng/ml. The proliferation assay was incubated for 4 days at 37°C and 5% CO2. 50 µl XTT complete reagent (50 parts XTT + 1 part coupl. reagent mixed) was added and incubated at 37°C. Measurement of absorbance (cells plus supernatant) was done with the Tecan Safire after 3 h and 4 h. Inhibition of proliferation was calculated compared to medium values set as 100%. EC50 values for gemcitabine and oxaliplatin were calculated in the GraphPad Prism program.
# [2] = system: BxPC3-LVT; experiment: Inhibition of proliferation (XTT), BxPC3-LVT; conditions: exposed for 4 days
# Procedure: as §1, §2
# [3] = system: Capanl-LVT; experiment: Inhibition of proliferation (XTT), Capanl-LVT; conditions: exposed for 4 days
# Procedure: as §1, §2
# [4] = system: Kato III cells; experiment: Cell cycle analysis and cell growth, Kato III; conditions: Kato III; 5-FU 10 or 100 ng/ml, oxaliplatin 50 or 500 ng/ml; 96 hours
# Procedure: Kato III cells, a human gastric tumor cell line, was cultivated in RPMI 1640 medium (Invitrogen) containing 20% FCS (Perbio) and 2 mM Glutamax (Invitrogen) at 37°C and 5% CO2, with or without cytostatic compounds. 5-FU (Neofluor from NeoCorp AG) was tested at a concentration of 10 or 100 ng/ml, and oxaliplatin (Hospira) was tested at a concentration of 50 or 500 ng/ml. […] Cells were harvested with EDTA/trypsin, washed and analysed.
# Cell cycle stages were determined based on measurement of cellular DNA content. This allows one to discriminate between cells in the G1-, S- or G2-phase of the cell cycle. In the S-phase DNA duplication occurs whereas in the G2-phase cells grow and prepare for mitosis. Cell cycle analysis was done using the CycleTEST PLUS DNA Reagent Kit from BD Biosciences following the manufacturer's protocol. Flow cytometry acquisition and analysis were performed by using BD FACS CantoII (BD Biosciences) and FlowJo (Tree Star) software.
# Kato III cells were pretreated for 4 days with Irinotecan or Docetaxel and analysed for CLDN18.2 expression and cell cycle arrest.
# [5] = system: MiaPaCa-2-LVT; experiment: Inhibition of proliferation (XTT), MiaPaCa-2-LVT; conditions: exposed for 4 days
# Procedure: as §1, §2
structure (smiles),measurement,setting,value
"O=C1[O][Pt]2([NH][C@@H]3CCCC[C@H]3[NH]2)[O]C1=O [oxaliplatin, [(1R,2R)-cyclohexane-1,2-diamine](ethanedioato-O,O')platinum(II)]",IC50 Inhibition of Proliferation,[1],~0.5 µg/mL
same,IC50 Inhibition of Proliferation,[2],0.5 to 1 µg/mL
same,IC50 Inhibition of Proliferation,[3],~0.1 µg/mL
same,cell cycle phase distribution,[4],enrichment of cells predominantly in the G1- and G2-phases
same,IC50 Inhibition of Proliferation,[5],0.05 to 0.1 µg/mL
